From US10144732B2 (BIOGEN MA INC., priority 2014, dated 2018)
Several values for one entry are separate records, joined by “and”; a condition that tells them apart may be missing. Identical values can stand only once. Counter-ions that a name gives are not always drawn. Like-named read-outs stand apart in the source and are kept apart here.

Target: T1, Human ATX protein (Homo sapiens, UniProt Q13822)
T1 construct: made in house
Assay: ATX biochemical assay (FRET, FS-3 substrate)
Details: FS-3 2 μM, ATX 1.0 μg/mL, 30 minutes preincubation, 2 hours reaction at room temperature
How it was run: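 In-house human ATX (1.0 μg/mL final) was preincubated with compound for 30 min at room temperature in Tris buffer pH 7.4 with 1 mg/mL fatty acid free-BSA. FS-3 substrate (2 μM final) was then hydrolysed for 2 hours at room temperature, protected from light, and read as fluorescence at ex 485/em 538 nm.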

| Structure (SMILES) | IC50 (FRET assay, read-out: IC50) | IC50 (IC50, FRET assay) [nM] |
| --- | --- | --- |
| O=C(C[C@H]1CC[C@H](C(=O)O)CC1)N1CCc2c(C(F)F)nn(Cc3ccc(F)cc3)c2C1 [Example 5-44, trans-4-(2-(3-(Difluoromethyl)-1-(4-fluorobenzyl)-4,5-dihydro-1H-pyrazolo[3,4-c]pyridin-6(7H)-yl)-2-oxoethyl)cyclohexanecarboxylic acid] | ≤ 100 nM |  |
| O=C(O)C1CC2(CC(CC(=O)N3CCc4c(C(F)(F)F)nn(Cc5ccc(Cl)cc5F)c4C3)C2)C1 (stereo not shown) [Example 6-12, 6-(2-(1-(4-Chloro-2-fluorobenzyl)-3-(trifluoromethyl)-4,5-dihydro-1H-pyrazolo[3,4-c]pyridin-6(7H)-yl)-2-oxoethyl)spiro[3.3]heptane-2-carboxylic acid] | ≤ 100 nM |  |
| O=C(O)C1CC2COCC(C1)N2CC(=O)N1CCc2c(C(F)(F)F)nn(Cc3ccc(F)cc3)c2C1 (stereo not shown) [Example 13-26, 9-(2-(1-(4-Fluorobenzyl)-3-(trifluoromethyl)-4,5-dihydro-1H-pyrazolo[3,4-c]pyridin-6(7H)-yl)-2-oxoethyl)-3-oxa-9-azabicyclo[3.3.1]nonane-7-carboxylic acid TFA salt] |  | ≤ 100 |
| O=C(C[C@H]1CC[C@H](C(=O)O)CC1)N1CCc2cnn(Cc3ccc(Cl)cc3F)c2C1 [Example 7-3, trans-4-(2-(1-(4-Chloro-2-fluorobenzyl)-4,5-dihydro-1H-pyrazolo[3,4-c]pyridin-6(7H)-yl)-2-oxoethyl)cyclohexanecarboxylic acid] | ≤ 100 nM |  |
| O=C(C[C@H]1CC[C@H](C(=O)O)CC1)N1CCc2c(C(F)(F)F)nn(C3CCCCC3)c2C1 [Example 7-19, trans-4-(2-(1-cyclohexyl-3-(trifluoromethyl)-4,5-dihydro-1H-pyrazolo[3,4-c]pyridin-6(7H)-yl)-2-oxoethyl)cyclohexanecarboxylic acid] | > 500 nM and ≤ 10000 nM |  |
| O=C(CC1CCN2CCCC2C1)N1CCc2c(C(F)(F)F)nn(Cc3ccc(F)cc3)c2C1 (stereo not shown) [Example 1-34, 1-(1-(4-Fluorobenzyl)-3-(trifluoromethyl)-4,5-dihydro-1H-pyrazolo[3,4-c]pyridin-6(7H)-yl)-2-(octahydroindolizin-7-yl)ethanone TFA salt] | ≤ 100 nM |  |
| CCOC(=O)C1CCC(OC(=O)N2CCc3c(C(F)(F)F)nn(Cc4ccc(Cl)cc4F)c3C2)CC1 (stereo not shown) [Example 4-1, 4-(Ethoxycarbonyl)cyclohexyl1-(4-chloro-2-fluorobenzyl)-3-(trifluoromethyl)-4,5-dihydro-1H-pyrazolo[3,4-c]pyridine-6(7H)-carboxylate] | ≤ 100 nM |  |
| O=C(CCc1nnn[nH]1)N1CCc2c(C(F)(F)F)nn(Cc3ccc(F)cc3)c2C1 [Example 1-32, 1-(1-(4-Fluorobenzyl)-3-(trifluoromethyl)-4,5-dihydro-1H-pyrazolo[3,4-c]pyridin-6(7H)-yl)-3-(1H-tetrazol-5-yl)propan-1-one] | ≤ 100 nM |  |
| CCOC(=O)C1CCC(CC(=O)N2CCc3c(C(F)(F)F)nn(Cc4ccc(Cl)cc4)c3C2)CC1 (stereo not shown) [Example 1-8, Ethyl 4-(2-(1-(4-chlorobenzyl)-3-(trifluoromethyl)-4,5-dihydro-1H-pyrazolo[3,4-c]pyridin-6(7H)-yl)-2-oxoethyl)cyclohexanecarboxylate] | ≤ 100 nM |  |
| O=C(C[C@H]1CC[C@@H](C(=O)O)CC1)N1CCc2c(C(F)(F)F)nn(Cc3ccc(Cl)cc3F)c2C1 [Example 5-2, cis-4-(2-(1-(4-Chloro-2-fluorobenzyl)-3-(trifluoromethyl)-4,5-dihydro-1H-pyrazolo[3,4-c]pyridin-6(7H)-yl)-2-oxoethyl)cyclohexanecarboxylic acid] | ≤ 100 nM |  |
| O=C(C[C@H]1CC[C@@H](C(=O)O)CC1)N1CCc2c(C(F)(F)F)nn(Cc3ccc(F)cc3)c2C1 [Example 7-2, cis-4-(2-(1-(4-fluorobenzyl)-3-(trifluoromethyl)-4,5-dihydro-1H-pyrazolo[3,4-c]pyridin-6(7H)-yl)-2-oxoethyl)cyclohexanecarboxylic acid] | ≤ 100 nM |  |
| CCCC1CC(CC(=O)N2CCc3c(C(F)(F)F)nn(Cc4ccc(F)cc4)c3C2)CCN1C(=O)OC(C)(C)C (stereo not shown) [Example 8-9, tert-Butyl 4-(2-(1-(4-fluorobenzyl)-3-(trifluoromethyl)-4,5-dihydro-1H-pyrazolo[3,4-c]pyridin-6(7H)-yl)-2-oxoethyl)-2-propylpiperidine-1-carboxylate] | ≤ 100 nM |  |
| O=C(C[C@H]1CC[C@@H](C(=O)O)CC1)N1CCc2c(C(F)(F)F)nn(Cc3cc(F)cc(Cl)c3)c2C1 [Example 5-4, cis-4-(2-(1-(3-chloro-5-fluorobenzyl)-3-(trifluoromethyl)-4,5-dihydro-1H-pyrazolo[3,4-c]pyridin-6(7H)-yl)-2-oxoethyl)cyclohexanecarboxylic acid] | ≤ 100 nM |  |
| CC(C)(C)OC(=O)N1CCCC(CC(=O)N2CCc3c(C(F)(F)F)nn(Cc4ccc(F)cc4)c3C2)C1 (stereo not shown) [Example 8-4, tert-Butyl 3-(2-(1-(4-fluorobenzyl)-3-(trifluoromethyl)-4,5-dihydro-1H-pyrazolo[3,4-c]pyridin-6(7H)-yl)-2-oxoethyl)piperidine-1-carboxylate] | ≤ 100 nM |  |
| O=C(CC1CCOCC1)N1CCc2c(C(F)(F)F)nn(Cc3ccc(F)cc3)c2C1 [Example 1-30, 1-(1-(4-Fluorobenzyl)-3-(trifluoromethyl)-4,5-dihydro-1H-pyrazolo[3,4-c]pyridin-6(7H)-yl)-2-(tetrahydro-2H-pyran-4-yl)ethanone] | ≤ 100 nM |  |
| CCOC(=O)[C@H]1CC[C@H](CC(=O)N2CCc3c(C(F)(F)F)nn(Cc4ccc(Cl)cc4F)c3C2)CC1 [Example 2-1, trans-Ethyl 4-(2-(1-(4-chloro-2-fluorobenzyl)-3-(trifluoromethyl)-4,5-dihydro-1H-pyrazolo[3,4-c]pyridin-6(7H)-yl)-2-oxoethyl)cyclohexanecarboxylate] | ≤ 100 nM |  |
| CC1(C(=O)O)CCC(CC(=O)N2CCc3c(C(F)(F)F)nn(Cc4ccc(Cl)cc4F)c3C2)CC1 (mixture of isomers) [Example 6-5, 4-(2-(1-(4-chloro-2-fluorobenzyl)-3-(trifluoromethyl)-4,5-dihydro-1H-pyrazolo[3,4-c]pyridin-6(7H)-yl)-2-oxoethyl)-1-methylcyclohexanecarboxylic acid] | ≤ 100 nM |  |

More lines, main results first:

| IC50 (FRET assay, read-out: IC50) | Structure (SMILES) | IC50 (IC50, FRET assay) [nM] |
| --- | --- | --- |
| ≤ 100 nM | CCOC(=O)C1CCCN(CC(=O)N2CCc3c(C(F)(F)F)nn(Cc4ccc(Cl)cc4F)c3C2)CC1 (stereo not shown) [Example 12-17, TFA salt] |  |
| ≤ 100 nM | O=C(O)CC1CN(CC(=O)N2CCc3c(C(F)(F)F)nn(Cc4ccc(F)cc4)c3C2)C1 [Example 13-23, 2-(1-(2-(1-(4-Fluorobenzyl)-3-(trifluoromethyl)-4,5-dihydro-1H-pyrazolo[3,4-c]pyridin-6(7H)-yl)-2-oxoethyl)azetidin-3-yl)acetic acid TFA salt] |  |
| ≤ 100 nM | O=C(O)CC1CCN(CC(=O)N2CCc3c(C(F)(F)F)nn(Cc4ccc(F)cc4)c3C2)C1 (stereo not shown) [Example 13-25, 2-(1-(2-(1-(4-Fluorobenzyl)-3-(trifluoromethyl)-4,5-dihydro-1H-pyrazolo[3,4-c]pyridin-6(7H)-yl)-2-oxoethyl)pyrrolidin-3-yl)acetic acid TFA salt] |  |
| ≤ 100 nM | O=C(O)[C@H]1CC(CC(=O)N2CCc3c(C(F)(F)F)nn(Cc4ccc(Cl)cc4F)c3C2)CN1 (stereo partly drawn) [Example 9-14, (2R)-4-(2-(1-(4-Chloro-2-fluorobenzyl)-3-(trifluoromethyl)-4,5-dihydro-1H-pyrazolo[3,4-c]pyridin-6(7H)-yl)-2-oxoethyl)pyrrolidine-2-carboxylic acid TFA salt] |  |
| ≤ 100 nM | O=C(O)[C@@H]1CC(CC(=O)N2CCc3c(C(F)(F)F)nn(Cc4ccc(Cl)cc4F)c3C2)CN1 (stereo partly shown) [Example 9-8, (2s)-4-(2-(1-(4-Chloro-2-fluorobenzyl)-3-(trifluoromethyl)-4,5-dihydro-1H-pyrazolo[3,4-c]pyridin-6(7H)-yl)-2-oxoethyl)pyrrolidine-2-carboxylic acid TFA salt] |  |
| ≤ 100 nM | O=C(CC1CCNC(C(F)(F)F)C1)N1CCc2c(C(F)(F)F)nn(Cc3ccc(Cl)cc3F)c2C1 (stereo not shown) [Example 9-7, 1-(1-(4-Chloro-2-fluorobenzyl)-3-(trifluoromethyl)-4,5-dihydro-1H-pyrazolo[3,4-c]pyridin-6(7H)-yl)-2-(2-(trifluoromethyl)piperidin-4-yl)ethanone TFA salt] |  |
| ≤ 100 nM | CC1(C)C(NCC(=O)N2CCc3c(C(F)(F)F)nn(Cc4ccc(F)cc4)c3C2)CC1C(=O)O (stereo not shown) [Example 13-14, 3-((2-(1-(4-Fluorobenzyl)-3-(trifluoromethyl)-4,5-dihydro-1H-pyrazolo[3,4-c]pyridin-6(7H)-yl)-2-oxoethyl)amino)-2,2-dimethylcyclobutanecarboxylic acid TFA salt] |  |
| ≤ 100 nM | O=C(O)C1CCCN(CC(=O)N2CCc3c(C(F)(F)F)nn(Cc4ccc(F)cc4)c3C2)C1 (stereo not shown) [Example 13-7, 1-(2-(1-(4-Fluorobenzyl)-3-(trifluoromethyl)-4,5-dihydro-1H-pyrazolo[3,4-c]pyridin-6(7H)-yl)-2-oxoethyl)piperidine-3-carboxylic acid] |  |
| ≤ 100 nM | CCC1CC(CC(=O)N2CCc3c(C(F)(F)F)nn(Cc4ccc(F)cc4)c3C2)CCN1C (stereo not shown) [Example 10-7, 2-(2-Ethyl-1-methylpiperidin-4-yl)-1-(1-(4-fluorobenzyl)-3-(trifluoromethyl)-4,5-dihydro-1H-pyrazolo[3,4-c]pyridin-6(7H)-yl)ethanone TFA salt] |  |
| ≤ 100 nM | O=C(CC1CCNC1)N1CCc2c(C(F)(F)F)nn(Cc3ccc(F)cc3)c2C1 (stereo not shown) [Example 9-23, 1-(1-(4-Fluorobenzyl)-3-(trifluoromethyl)-4,5-dihydro-1H-pyrazolo[3,4-c]pyridin-6(7H)-yl)-2-(pyrrolidin-3-yl)ethanone hydrochloride] |  |
| ≤ 100 nM | CC(C)N1CCCC(CC(=O)N2CCc3c(C(F)(F)F)nn(Cc4ccc(F)cc4)c3C2)C1 (stereo not shown) [Example 11-4, 1-(1-(4-Fluorobenzyl)-3-(trifluoromethyl)-4,5-dihydro-1H-pyrazolo[3,4-c]pyridin-6(7H)-yl)-2-(1-isopropylpiperidin-3-yl)ethanone formate] |  |
